Each structure is given as a SMILES string.

The target of this test is T1, bacteriophage T4 DNA polymerase (Enterobacteria phage T4, UniProt P04415).
T1 construct: made in house
T1 sequence (P04415 1-898): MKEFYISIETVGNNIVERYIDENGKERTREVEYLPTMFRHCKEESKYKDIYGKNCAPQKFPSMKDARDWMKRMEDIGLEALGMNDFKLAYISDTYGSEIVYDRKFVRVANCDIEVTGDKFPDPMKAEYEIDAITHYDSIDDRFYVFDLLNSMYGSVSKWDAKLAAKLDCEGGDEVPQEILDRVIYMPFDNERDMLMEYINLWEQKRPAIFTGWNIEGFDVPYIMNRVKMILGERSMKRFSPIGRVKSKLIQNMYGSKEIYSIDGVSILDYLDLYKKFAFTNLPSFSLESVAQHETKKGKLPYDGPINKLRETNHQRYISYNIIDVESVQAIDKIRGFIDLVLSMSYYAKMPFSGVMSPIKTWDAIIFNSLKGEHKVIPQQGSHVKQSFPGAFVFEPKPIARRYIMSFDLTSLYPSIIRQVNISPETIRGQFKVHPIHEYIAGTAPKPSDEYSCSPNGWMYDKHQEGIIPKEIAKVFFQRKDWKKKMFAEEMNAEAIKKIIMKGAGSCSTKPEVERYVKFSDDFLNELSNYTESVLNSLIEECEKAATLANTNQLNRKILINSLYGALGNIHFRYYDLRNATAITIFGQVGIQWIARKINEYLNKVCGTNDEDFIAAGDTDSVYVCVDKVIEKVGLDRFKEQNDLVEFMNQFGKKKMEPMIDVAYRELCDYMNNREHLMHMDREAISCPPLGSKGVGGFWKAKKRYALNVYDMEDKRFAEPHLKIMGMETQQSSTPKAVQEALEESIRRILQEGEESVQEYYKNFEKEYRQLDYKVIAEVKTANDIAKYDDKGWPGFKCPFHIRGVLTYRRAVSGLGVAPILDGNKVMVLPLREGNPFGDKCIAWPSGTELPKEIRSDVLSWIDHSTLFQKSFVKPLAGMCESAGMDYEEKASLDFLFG
The experiment in a line: Counter-screen against bacteriophage T4 DNA polymerase. The test is classed as biochemical. To be noted: for % inhibition T4 10' 2.5 / % inhibition T4 10' 5 / % inhibition T4 10' 10 / % inhibition T4 10' 20 / % inhibition T4 10' 40 / % inhibition T4 10' 80: read at 10'; for % inhibition T4 70' 2.5 / % inhibition T4 70' 5 / % inhibition T4 70' 10 / % inhibition T4 70' 20 / % inhibition T4 70' 40 / % inhibition T4 70' 80: read at 70'; for % inhibition T4 130' 2.5 / % inhibition T4 130' 5 / % inhibition T4 130' 10 / % inhibition T4 130' 20 / % inhibition T4 130' 40 / % inhibition T4 130' 80: read at 130'; for % inhibition T4 40' 2.5 / % inhibition T4 40' 5 / % inhibition T4 40' 10 / % inhibition T4 40' 20 / % inhibition T4 40' 40 / % inhibition T4 40' 80: read at 40'; for % inhibition T4 90' 2.5 / % inhibition T4 90' 5 / % inhibition T4 90' 10 / % inhibition T4 90' 20 / % inhibition T4 90' 40 / % inhibition T4 90' 80: read at 90'; for % inhibition T4 180' 2.5 / % inhibition T4 180' 5 / % inhibition T4 180' 10 / % inhibition T4 180' 20 / % inhibition T4 180' 40 / % inhibition T4 180' 80: read at 180'. On the procedure:
Codon-optimized, exonuclease-deficient Pf-apPOL was overexpressed in E. coli BL21 (DE3) and purified as described. The protein was dialysed against two, 1-liter changes of 20 mM Tris-HCl (pH 8.0), 400 mM NaCl, and 20% glycerol. Plasmodium bergei and Babesia bovis apPOLs (Pb-apPOL and Bb-apPOL, respectively) were codon-optimized, expressed, and purified as for Pf-apPOL[15]. Bacteriophage T4 DNA polymerase was purified as described. The DNA oligonucleotides used to make the high-throughput substrate were obtained from Integrated DNA Technologies. Deoxynucleotides were purchased from Strategene. All other materials came from Fisher Scientific.
Each compound was tested in a dose-response format to determine IC50 values. […] T4 DNA polymerase can be produced in large quantities, and is in the same family (B-family) as the replicative human DNA polymerases (α, δ, and ε)[20].
On the technique in general: A counterscreen serves to expose hits that act by an unwanted route or on another target.

For the molecule `O=C(NNC(=O)c1ccc(Cl)cc1)C(=O)NNC(=O)c1ccc(Cl)cc1` [Molecule 25, O=C(C(=O)NNC(=O)c1ccc(cc1)Cl)NNC(=O)c1ccc(cc1)Cl], where the note is “DRC-2, concentration 80”, the “% inhibition T4 10'” value is reported as -22%. Further, the “% inhibition T4 40'” value (DRC-2, concentration 5) was -13%; the “% inhibition T4 40'” value (DRC-2, concentration 20) is -23%; the “% inhibition T4 40'” value (DRC-2, concentration 40) is on record as -17%. Besides, the “% inhibition T4 90'” value runs as follows: (DRC-2, concentration 5) -13%; (DRC-2, concentration 20) -22%. Moreover, the “% inhibition T4 180'” value runs as follows: (DRC-2, concentration 5) -17%; (DRC-2, concentration 20) -23%; (DRC-2, concentration 40) -17%.

On to `O=C(c1c[nH]c2ncccc12)N1CCCC1` [Molecule 63, O=C(c1c[nH]c2c1cccn2)N1CCCC1], for which, for the setting “DRC-2, concentration 20”, the “% inhibition T4 10'” value amounted to 25% and the “% inhibition T4 40'” value is listed as 25%. Besides, for the setting “DRC-2, concentration 40”, the “% inhibition T4 10'” value is listed as 31% and the “% inhibition T4 90'” value is on record as 31%.

As to `O=C1CCCC2=C1C(c1ccccn1)C1=C(CCCC1=O)O2` [KU0194228], the “% inhibition T4 10'” value (DRC-2, concentration 10) came to 18%. Moreover, the “% inhibition T4 40'” value (DRC-2, concentration 20) came out at 18%.

For the molecule `O=C1C(=Cc2ccccc2O)Oc2ccc(O)cc21` [KU0196475], the “% inhibition T4 10'” value (DRC-2, concentration 80) is given as 34%. For the same molecule, the “% inhibition T4 40'” value runs as follows: (DRC-2, concentration 2.5) 10%; (DRC-2, concentration 5) 10%; (DRC-2, concentration 10) 21%. In addition, the “% inhibition T4 90'” value came out at 21% (DRC-2, concentration 10) and 34% (DRC-2, concentration 40).

For `Cc1ccc(N2CCC(NC(=O)Cc3cccs3)C2=O)cc1C` (centres unmarked) [Molecule 57, O=C(NC1CCN(C1=O)c1ccc(c(c1)C)C)Cc1cccs1], under “DRC-1, concentration 2.5”, the “% inhibition T4 10' 2.5” value was -2.9635%, the “% inhibition T4 70' 2.5” value is listed as -3.783% and the “% inhibition T4 130' 2.5” value was -5.326%. For the same molecule, where the note is “DRC-1, concentration 5”, the “% inhibition T4 10' 5” value was 6.066%, the “% inhibition T4 70' 5” value is given as 0.9049% and the “% inhibition T4 130' 5” value is on record as -0.359%. Also, where the note is “DRC-1, concentration 10”, the “% inhibition T4 10' 10” value was 19.8361%, the “% inhibition T4 70' 10” value turned out to be 15.0423% and the “% inhibition T4 130' 10” value is reported as 12.5508%. Also, for the setting “DRC-1, concentration 20”, the “% inhibition T4 10' 20” value is 23.1597%, the “% inhibition T4 70' 20” value was 17.1422% and the “% inhibition T4 130' 20” value worked out at 13.7416%. For the setting “DRC-1, concentration 40”, the “% inhibition T4 10' 40” value is listed as 29.7521%, the “% inhibition T4 70' 40” value is on record as 24.1448% and the “% inhibition T4 130' 40” value was found to be 21.2189%. Where the note is “DRC-1, concentration 80”, the “% inhibition T4 10' 80” value is listed as 29.7097%, the “% inhibition T4 70' 80” value was 21.6253% and the “% inhibition T4 130' 80” value was 19.4508%. Moreover, for the setting “DRC-2, concentration 2.5”, the “% inhibition T4 10' 2.5” value worked out at 14%, the “% inhibition T4 40' 2.5” value was 13%, the “% inhibition T4 90' 2.5” value worked out at 13% and the “% inhibition T4 180' 2.5” value worked out at 11%. For the setting “DRC-2, concentration 5”, the “% inhibition T4 10' 5” value came out at 12%, the “% inhibition T4 40' 5” value is on record as 12%, the “% inhibition T4 90' 5” value is reported as 11% and the “% inhibition T4 180' 5” value came out at 10%. Also, for the setting “DRC-2, concentration 10”, the “% inhibition T4 10' 10” value turned out to be 20%, the “% inhibition T4 40' 10” value turned out to be 20%, the “% inhibition T4 90' 10” value worked out at 20% and the “% inhibition T4 180' 10” value was 18%. Further, under “DRC-2, concentration 20”, the “% inhibition T4 10' 20” value came to 23%, the “% inhibition T4 40' 20” value was found to be 27%, the “% inhibition T4 90' 20” value turned out to be 26% and the “% inhibition T4 180' 20” value is 25%. Under “DRC-2, concentration 40”, the “% inhibition T4 10' 40” value is 25%, the “% inhibition T4 40' 40” value turned out to be 30%, the “% inhibition T4 90' 40” value is 29% and the “% inhibition T4 180' 40” value was found to be 28%. Under “DRC-2, concentration 80”, the “% inhibition T4 10' 80” value stood at 26%, the “% inhibition T4 40' 80” value is given as 35%, the “% inhibition T4 90' 80” value worked out at 37% and the “% inhibition T4 180' 80” value was 37%.

For the molecule `Cc1ccc(NC(=O)Cn2ccc3c(=O)[nH]ccc32)cc1F` [Molecule 48, O=C(Cn1ccc2c1cc[nH]c2=O)Nc1ccc(c(c1)F)C], where the note is “DRC-2, concentration 5”, the “% inhibition T4 10'” value is given as -12%, the “% inhibition T4 40'” value is -12% and the “% inhibition T4 180'” value is -12%. Where the note is “DRC-2, concentration 10”, the “% inhibition T4 90'” value is -15% and the “% inhibition T4 180'” value is recorded as -15%.

In the case of `Nc1cc(Oc2ccc(O)c(N)c2)ccc1O` [KU0034728], for the setting “DRC-1, concentration 2.5”, the “% inhibition T4 10' 2.5” value was 10.6184%, the “% inhibition T4 70' 2.5” value is listed as 10.2077% and the “% inhibition T4 130' 2.5” value is on record as 10.8947%. Further, under “DRC-1, concentration 5”, the “% inhibition T4 10' 5” value is 9.797%, the “% inhibition T4 70' 5” value is 9.3179% and the “% inhibition T4 130' 5” value came out at 9.975%. Besides, under “DRC-1, concentration 10”, the “% inhibition T4 10' 10” value turned out to be 12.6946%, the “% inhibition T4 70' 10” value was determined as 12.3114% and the “% inhibition T4 130' 10” value came out at 11.1726%. In addition, for the setting “DRC-1, concentration 20”, the “% inhibition T4 10' 20” value is listed as 6.887%, the “% inhibition T4 70' 20” value is 7.7965% and the “% inhibition T4 130' 20” value is on record as 8.154%. For the same molecule, for the setting “DRC-1, concentration 40”, the “% inhibition T4 10' 40” value came to 15.6951%, the “% inhibition T4 70' 40” value came to 14.4419% and the “% inhibition T4 130' 40” value came out at 14.6568%. Also, under “DRC-1, concentration 80”, the “% inhibition T4 10' 80” value came out at 21.8837%, the “% inhibition T4 70' 80” value was 19.0676% and the “% inhibition T4 130' 80” value is recorded as 18.4293%. Also, where the note is “DRC-2, concentration 2.5”, the “% inhibition T4 10' 2.5” value was -8.57%, the “% inhibition T4 40' 2.5” value is listed as -8%, the “% inhibition T4 90' 2.5” value is reported as -7% and the “% inhibition T4 180' 2.5” value is given as -11%. For the setting “DRC-2, concentration 5”, the “% inhibition T4 10' 5” value is listed as -11%, the “% inhibition T4 40' 5” value is listed as -11%, the “% inhibition T4 90' 5” value was -9.49% and the “% inhibition T4 180' 5” value was -15%. Moreover, where the note is “DRC-2, concentration 10”, the “% inhibition T4 10' 10” value is -3.21%, the “% inhibition T4 40' 10” value is -5.5%, the “% inhibition T4 90' 10” value was -3.47% and the “% inhibition T4 180' 10” value is -8%. Also, for the setting “DRC-2, concentration 20”, the “% inhibition T4 10' 20” value was -7%, the “% inhibition T4 40' 20” value is given as -8%, the “% inhibition T4 90' 20” value is -7% and the “% inhibition T4 180' 20” value is reported as -11%. Besides, where the note is “DRC-2, concentration 40”, the “% inhibition T4 10' 40” value was 3.18%, the “% inhibition T4 40' 40” value was -2.76%, the “% inhibition T4 90' 40” value was -4.46% and the “% inhibition T4 180' 40” value was -7.51%. In addition, under “DRC-2, concentration 80”, the “% inhibition T4 10' 80” value was 12%, the “% inhibition T4 40' 80” value is -1.54%, the “% inhibition T4 90' 80” value was -9% and the “% inhibition T4 180' 80” value is given as -14%.
